Source: PubChem BioAssay AID463229 (Broad Institute, 2010)

Test system: INS-1E rat beta cells, no cytokines, CellTiter-Glo ATP, 48 h
Test: cytokine-free beta-cell viability effect – INS-1E rat cells, ATP luminescence, cherry pick, counter-screen for beta-cell apoptosis protection project, dose response (AID 463229)

SMILES	AC50 [µM]
COc1cnc(-c2ccccn2)nc1Sc1ccccc1Cl	23.1
CCC(=O)NC(c1ccc(Cl)cc1Cl)c1ccc2cccnc2c1O (stereo not drawn)	2.34
COc1ccc(OC)c2sc(N(CCCN(C)C)C(=O)c3ccc(S(=O)(=O)N4CCc5ccccc5C4)cc3)nc12	2.23
C=CCc1cccc(/C=N/NC(=O)c2ccc3nc[nH]c3c2)c1O	6.52
N/C(=N\NC(=O)c1sccc1OCc1ccc(Cl)cc1Cl)c1ccccn1	11.8
Oc1ccc(-[n+]2c(-c3ccccc3)cc(-c3ccccc3)cc2-c2ccccc2)cc1	3.96
CCCCCCSc1cccc(-c2nc3ccccn3c2NCc2ccccc2)c1	6.25
Cc1ccc(-c2cc(-c3ccc(C)cc3)[n+](-c3ccccc3)c(-c3ccc(C)cc3)c2)cc1	0.577
Oc1c(C(Nc2cccc(C(F)(F)F)c2)c2ccncc2)ccc2cccnc12 (stereo not drawn)	6.84
Cc1ccccc1NC(=O)/C=C/c1ccc([N+](=O)[O-])s1	6.96
CCOc1ccc(-n2c(O)c(/C=N/Nc3nc(C)cc(C)n3)c3ccccc3c2=O)cc1	6.38
CC(C)(C)c1ccc(C(O)CCCN2CCC(C(O)(c3ccccc3)c3ccccc3)CC2)cc1 (stereo not drawn)	8.16
CCCCCCOc1ccc(CN2CCN(C)CC2)cc1	11
CCN1CCN(c2c(Cl)cccc2NC(=O)c2ccc([N+](=O)[O-])o2)CC1	7.11
COc1cc(SC#N)ccc1N=Cc1c(C)[nH]n(-c2ccc(C)cc2)c1=O	8.46
O=C(N/N=C/c1ccccc1O)C1CC(=O)N(c2ccc(Cl)cc2)C1 (stereo not drawn)	17.7
Cc1cc(C)c2nc(NNC(=O)c3ccc(S(=O)(=O)N4CC(C)CC(C)C4)cc3)sc2c1 (stereo not drawn)	4.75
CN(C)C(=O)c1ccc(NC(=O)c2cccnc2)cc1	7.27
CCOc1cc(-c2sc(Nc3cc(C)ccc3OC)n[n+]2-c2ccccc2)ccc1OC	15
CNc1nc(N/N=C/c2cc3c(cc2[N+](=O)[O-])OCO3)nc(Nc2ccccc2)n1	14.2
COc1ccc(C)cc1Nc1n[n+](-c2ccccc2)c(-c2ccc(N(C)C)cc2)s1	2.9
C=CCc1cccc(/C=N/NC(=O)c2ccccc2OC)c1O	9.61
Cc1ccc2nc(-c3ccc(NC(=O)c4cccnc4)cc3)oc2c1	7.8
C/C(=N\NC(=O)c1cc(-c2cccnc2)nc2ccccc12)c1ccccc1O	5.74
COc1ccc2c(C(=O)NCc3ccc4c(c3)OCO4)c(-c3ccc(S(C)(=O)=O)cc3)sc2c1	9.16
CCOc1ccc2nc(NC(=O)c3ccccn3)sc2c1	6.67

SMILES	AC50 [µM]
C#CCOCCOCCOCCNc1nc(N2CCN(C(=O)CCCCCCCCCCNC(=O)[C@H](CCCCN)n3cc(C)nn3)CC2)nc(N2CCN(C(=O)CCCCCCCCCCNC(=O)[C@H](CCCN=C(N)N)n3cc(C[C@@H](C)CC)nn3)CC2)n1	7.85
O=C(CSc1nnc(Cn2nnc3ccccc32)o1)N(Cc1ccc(F)cc1)c1ccccc1	7.94
COC(=O)c1ccc(NC(=O)c2nc(S(=O)(=O)Cc3cccc(C)c3)ncc2Cl)cc1	10.8
CCCOc1ccc(/C=N/NC(=S)Nc2ccccc2[N+](=O)[O-])c(O)c1	7.44
CN1/C(=C\C(=S)NC(=O)c2cccc(Br)c2)C(C)(C)c2ccccc21	3.93
COc1ccccc1-[n+]1c(C)cc(/C=C2\Sc3ccccc3N2C)cc1C	< 0.195
CCOC(=O)c1cnc(-n2nc(C)cc2C)nc1NC(C)c1ccccc1 (stereo not drawn)	13.7
CC(C)(C)c1ccc(-n2ncc3c2CCCC3NC(=O)C2(C(N)=O)CC2)cc1 (stereo not drawn)	6.85
Cc1ccc(-n2c(-c3ccccc3)c[n+]3c2CCc2ccccc2-3)c(C)c1	1.91
OCCCNc1c2ccccc2nc2ccccc12	9.09
O=C(/C(=C/c1ccc(Cl)cc1)c1nc2ccccc2[nH]1)c1ccccc1	4.04
CCCCCCSc1cc(-c2nc3ccc(C)cn3c2NCc2ccccc2)ccc1OC	6.2
O=C(N/N=C/c1cc(Br)cc(Cl)c1O)c1ccc2c(c1)OCO2	11
CCN(CC)c1ccc(C(=O)N/N=C/c2ccccc2OC(F)F)cc1	15.6
COCc1ccc(O)c2ncccc12	15.9
CC(Oc1ccc(Cl)cc1Cl)c1nc(-c2ccc(NC(=O)c3cccnc3)cc2)no1 (stereo not drawn)	0.906
C=CCn1c(SCC(=O)c2[nH]c(C)c(C(=O)OCC)c2C)nc2scc(-c3ccc(OC)c(OC)c3)c2c1=O	3.53
Cc1noc(-c2ccc(C(F)(F)F)cc2)c1NC(=O)Nc1ccc(Cl)cc1	7.7
COc1ccc(Br)cc1CN1CCN(Cc2c[nH]c3ccccc23)CC1	7.35
CC1(C)CC(=O)C2=C(C1)OC1=C(C(=O)CC(C)(C)C1)C2c1ccc(O)cc1O	7.31
CC(C)OCCCNc1ncnc2c1[nH]c1ccccc12	4.34
COc1cc(CSc2nnnn2-c2ccc(C)cc2)cc(OC)c1OC	4.46
COc1ccc(N=C2S/C(=C\c3ccc(N4CCOCC4)o3)C(=O)N2CCc2c[nH]c3ccccc23)cc1	13.8
O=[N+]([O-])c1ccccc1-c1cc(-c2ccccc2)cc(-c2ccccc2)[n+]1Cc1ccccc1Cl	2.23
Cc1cc2nc(-c3ccc[nH]c3=O)[nH]c2cc1C	2.42
CC(C)CCCCCCNC(=S)Nc1ccc(S(=O)(=O)N2CCOCC2)cc1	12.6

SMILES	AC50 [µM]
COc1nnc(-c2ccc(N3CCCCC3)c(NC(=O)C3CCCCC3)c2)c2ccccc12	5.25
O=C(c1ccccc1)c1c2c(cc3sc4ccccc4[n+]13)-c1cccc3cccc-2c13	2.26
CCCCCCCCCCOC(=O)Cn1c(COc2cccc(C)c2)[n+](C)c2ccccc21	4.71
Cc1cc(-c2n[nH]c(=S)n2/N=C/C(Br)=C/c2ccccc2)n[nH]1	15.6
CCOC(=O)C(C(C)=O)c1c(Br)c(O)c(O)c2c(C(=O)c3ccc(C)cc3)coc12 (stereo not drawn)	2.9
O=C(C[C@@H]1C/C=C/CC[C@H](Cc2ccc(F)cc2)C(=O)OC[C@@H](Cc2ccccc2)NC1=O)N[C@H](CO)Cc1ccccc1	7.82
Cc1cc(C)n(-c2nc3ccccc3c(=O)n2OCC#N)n1	12.4
COc1ccc2c(c1)C(=O)[C@H](O)[C@@H](c1ccc(OC)c(Br)c1)O2	7.97
CC(=O)c1ccc(N2CCN(S(=O)(=O)c3ccc4c(c3)CC(C)N4C(C)=O)CC2)cc1 (stereo not drawn)	8.54
Cc1ccc2nc(NC(=O)/C=C/c3ccc4c(c3)OCO4)sc2c1	7.35
Cc1ccc(-c2c(C#N)c(N)n3c(nc4ccccc43)c2C#N)cc1	4.1
O=C(CSc1nnc(Cn2nnc3ccccc32)o1)N(Cc1ccc(Cl)cc1)c1ccccc1	6.17
COc1ccc(CC(=O)Nc2nc(-c3ccc(F)c(F)c3)cs2)cc1OC	7.2
CCOc1cc(/C=C2\CCC/C(=C\c3cc(Cl)c(O)c(OCC)c3)C2=O)cc(Cl)c1O	7.28
Cc1cc(N2CCN(S(=O)(=O)c3ccc(Cl)cc3)CC2)c2ccccc2n1	7.4
O=C(N/N=C/c1ccccc1O)/C(=C/c1ccccc1)CCO	7.67
COc1ccc(/C(C)=N/NC(=O)c2cccc(S(=O)(=O)N3CCCC3)c2)c(O)c1	3.8
Nc1nonc1-n1nnc(C(=O)N/N=C/c2ccccc2O)c1CN1CCCC1	22.9
Cn1c(SCC(=O)N/N=C/c2ccc([N+](=O)[O-])s2)nnc1-c1ccc(Cl)cc1	12.1
COc1ccc(-c2n(Cc3ccccc3)c3ccccc3[n+]2Cc2ccccc2)cc1	3.95
COc1cccc(/C=N/Nc2cc(C)nc(-c3ccccc3O)n2)c1O	15.1
CC1Sc2ccc(S(=O)(=O)N3CCC(C(=O)Nc4ccc(Cl)cc4)CC3)cc2NC1=O (stereo not drawn)	6.13
COc1ccc2nc(/C(C#N)=C\c3ccc(Oc4ccc([N+](=O)[O-])cn4)cc3)[nH]c2c1	6.77
COc1ccc(C[C@H]2CN3C(=NC[C@@H]3Cc3ccccc3)N2CCNC(=O)CCC2CCCCC2)cc1	12.1
O=C(CCCc1nc(-c2ccc(Cl)cc2)no1)NC1CCCC1	13.5
O=C(/C=C/c1ccc(-c2ccccc2)cc1)NCc1cccnc1	9.36

SMILES	AC50 [µM]
O=C([O-])c1cc(-c2ccccc2)cc(-c2ccccc2)[n+]1Cc1ccccc1	1.98
CCc1ccc2c(c1)C1(C(=O)N2)N2CCCC2C(C(=O)c2ccc3ccccc3c2)C12C(=O)Nc1ccccc12 (stereo not drawn)	7.76
CCCCC(=O)NC(c1ccc(N(CC)CC)cc1)c1ccc2cccnc2c1O (stereo not drawn)	1.37
Cc1nc(NCCc2ccc(S(N)(=O)=O)cc2)c2c(C)c(C)sc2n1	6.2
Clc1ccc2nnnc(-c3ccccc3)c2c1	7.48
COc1ccc(O)c(C(=O)c2cnc3nc4ccccc4n3c2)c1	6.33
COC(=O)C1CN(C#N)N(c2ccc(Cl)cc2)C12c1ccccc1-c1ccccc12 (stereo not drawn)	4.26
C/C(=N\NC(=O)COc1ccccc1-c1ccccc1)c1ccc(O)cc1O	10.5
C=C(C=O)C[C@@H]1C[C@H](O)C2OC3C[C@]4(C)OC5/C=C\CC6OC7C(CC=CCC6OC5CCCC4OC3CC2O1)OC1CC2OC3CC(=O)OC3C[C@@H](C)C[C@@]2(C)OC1C[C@@H]7C (stereo partly drawn)	3.79
Cc1cccc(/C=N/NC(=O)c2c(-c3ccccc3)noc2C)c1O	7.61
Cc1ccc(S(=O)(=O)Nc2ccc(NC(=O)Nc3cccc(C(F)(F)F)c3)cc2)cc1	11.9
CC(C)(C)n1nnnc1C(c1ccc(F)cc1)N(Cc1ccc(F)cc1)Cc1ccco1 (stereo not drawn)	9.25
CCCC(=O)NC(c1cccs1)c1cc(Cl)c2cccnc2c1O (stereo not drawn)	5.67
COc1ccc(NC(=O)c2c(Nc3ccccc3)sc(C(=O)c3ccc(F)cc3)c2N)cc1	2.91
CCCCCCc1ccc(N2C[C@H](Cc3ccccc3)[C@@H](CC(=O)NCc3ccc(OC)cc3)C2=O)cc1	13.6
CCCCCCCNC1=CC(=O)CC(c2ccccc2)C1 (stereo not drawn)	9.84
Oc1ccc(Br)cc1CNc1cccc2cccnc12	12.8
CC(=O)/C=C/n1c(=S)oc2ccccc21	8.87
CCN(CC)c1ccc(/C=N/NC(=O)c2cnccn2)c(O)c1	2.01
CN(C)C1CCN(Cc2cc(COCc3ccccc3)c3cccnc3c2O)C1 (stereo not drawn)	10.9
CCCCCCCCNc1ncnc2ccccc12	0.384
COC(=O)[C@H](CC(C)C)N(Cc1ccccc1)S(=O)(=O)N(Cc1ccccc1)[C@@H](CC(C)C)C(=O)OC	15.5
COc1cc(NC(=O)c2ccccc2NS(=O)(=O)c2ccc(Cl)s2)cc(OC)c1	6.97
Cc1ccc(-c2cc3cccc[n+]3cc2-c2ccc(C)cc2)cc1	0.566
COc1ccc(C)cc1NS(=O)(=O)c1ccc(NC(=O)CN(c2cc([N+](=O)[O-])ccc2C)S(C)(=O)=O)cc1	1.11
